Earlier results in patent US7625920B2, “Fluorinated 4-azasteroid derivatives as androgen receptor modulators” (priority 2003, dated 2009).

What was measured:
[1] = after 7 years of treatment
[2] = median of 22 months of treatment

## NCCCC(O)(P(=O)([O-])O)P(=O)(O)O.O.O.O.[Na+] [alendronate, (4-amino-1-hydroxybutylidene)-bis-phosphonate monosodium trihydrate]
[1]
  increase in spinal BMD: 11%

## hPTH(1-34): human parathyroid hormone 1-34 fragment (SVSEIQLMHNLGKHLNSMERVEWLRKKLQDVHNF; Parathyroid hormone; UniProt P01270 32-65, looked up, fragment)
[2]
  reduction in nonvertebral fractures: 54%
  reduction in spine fractures: ≥ 65%
